# Laboratory results from publication PMC4460250, “Systems Pharmacology Dissecting Holistic Medicine for Treatment of Complex Diseases: An Example Using Cardiocerebrovascular Diseases Treated by TCM” (Evidence-based Complementary and Alternative Medicine : eCAM, 2015).
# Read-outs that look alike come from different tables or passages of the source.
# Tests used:
# [1] = cited from earlier work
# [2] = Human intestinal absorption percentage values of the PreHIA data set (732 compounds, Table S2); conditions: class from HIA value
# [3] = human, PreHIA data set, value given as fraction
Structure (SMILES),Class(High: HIA value ≥0.7; Low: HIA value < 0.7) [2],"HIA(Human Intestinal Absorption) [1, 3]",HIA(Human Intestinal Absorption) ([1]; in vivo)
Cn1nnc2c(C(N)=O)ncn2c1=O [Temozolomide],High (High: HIA value ≥0.7),1,–
CCN(CC)CCOC(=O)C1(C2CCCCC2)CCCCC1 [Dicyclomine],High (High: HIA value ≥0.7),1,–
CCOC(=O)C1=C[C@@H](OC(CC)CC)[C@H](NC(C)=O)[C@@H](N)C1 [Oseltamivir],High (High: HIA value ≥0.7),0.75,–
COc1ccnc(C[S+]([O-])c2nc3ccc(OC(F)F)cc3[nH]2)c1OC (stereo not drawn) [Pantoprazole],High (High: HIA value ≥0.7),0.77,–
O=P(O)(O)C(O)(Cc1cccnc1)P(=O)(O)O [Risedronic_acid],Low (Low: HIA value < 0.7),0.01,–
C#C[C@]1(O)CC[C@H]2[C@@H]3CCC4=CCCC[C@@H]4[C@H]3CC[C@@]21C [Lynestrenol],High (High: HIA value ≥0.7),1,–
C=C[C@H]1C[N@@]2CC[C@H]1C[C@@H]2[C@@H](O)c1ccnc2ccccc12 [Cinchonine],High (High: HIA value ≥0.7),1,–
N=C(N)NC(=O)Cc1c(Cl)cccc1Cl [Guanfacine],High (High: HIA value ≥0.7),1,–
CSc1ccc2ncn(/C=C/C(=O)O)c(=O)c2c1 [Tiacrilast],High (High: HIA value ≥0.7),0.99,–
COc1cc(C)c([S+](C)[O-])cc1OC (stereo not drawn) [Tolmesoxide],High (High: HIA value ≥0.7),0.98,–
C[N+](C)(C)CC(O)CC(=O)[O-] (stereo not drawn) [Carnitine],Low (Low: HIA value < 0.7),0.1,–
CN1C[C@H](C(=O)N[C@]2(C)O[C@@]3(O)[C@@H]4CCCN4C(=O)[C@H](Cc4ccccc4)N3C2=O)C[C@@H]2c3cccc4[nH]cc(c34)C[C@H]21 [Dihydroergotamine],Low (Low: HIA value < 0.7),0.35,–
CCCc1cc(C(N)=S)ccn1 [Protionamide],High (High: HIA value ≥0.7),0.9,–
CN(Cc1cc(Br)cc(Br)c1N)C1CCCCC1 [Bromhexine],High (High: HIA value ≥0.7),0.7,–
CCCN(CCC)CCc1cccc2c1CC(=O)N2 [Ropinirole],High (High: HIA value ≥0.7),0.98,–
CC1(C)O[C@@H]2C[C@H]3[C@@H]4CCC5=CC(=O)C=C[C@]5(C)[C@@]4(F)[C@@H](O)C[C@]3(C)[C@]2(C(=O)CO)O1 [Triamcinolone_acetonide],High (High: HIA value ≥0.7),0.9,–
O=C1CC2(CCCC2)CC(=O)N1CCCCN1CCN(c2ncccn2)CC1 [Buspirone],High (High: HIA value ≥0.7),1,–

# Now from value to compound, other results behind:
Class(High: HIA value ≥0.7; Low: HIA value < 0.7) [2],Structure (SMILES),"HIA(Human Intestinal Absorption) [1, 3]",HIA(Human Intestinal Absorption) ([1]; in vivo)
High (High: HIA value ≥0.7),CNS(=O)(=O)CCc1ccc2[nH]cc(C3CCN(C)CC3)c2c1 [Naratriptan],0.7,–
High (High: HIA value ≥0.7),CCOC(=O)C1=C(C)NC(C)=C(C(=O)OCC)C1c1ccccc1/C=C/C(=O)OC(C)(C)C [Lacidipine],0.98,–
High (High: HIA value ≥0.7),O=[N+]([O-])c1ccc(O)c2ncccc12 [Nitroxoline],1,–
High (High: HIA value ≥0.7),CC(C(=O)O)c1ccc(C2CCCC(=NO)C2)cc1 (stereo not drawn) [Ximoprofen],0.98,–
High (High: HIA value ≥0.7),C[C@@H]1CC(=O)NN=C1c1ccc(NN=C(C#N)C#N)cc1 [Levosimendan],0.9,–
High (High: HIA value ≥0.7),CN1[C@@H]2CC[C@H]1C[C@@H](OC(=O)c1c[nH]c3ccccc13)C2 [Tropisetron],0.95,–
High (High: HIA value ≥0.7),COCCOc1cnc(NS(=O)(=O)c2ccccc2)nc1 [Glymidine],0.95,–
High (High: HIA value ≥0.7),NC(=O)OCC(COC(N)=O)c1ccccc1 [Felbamate],0.9,–
High (High: HIA value ≥0.7),CCCOC(C(=O)OC1CCN(C)CC1)(c1ccccc1)c1ccccc1 [Propiverine],0.84,–
High (High: HIA value ≥0.7),CC(=O)N1CCN(c2ccc(OCC3COC(Cn4ccnc4)(c4ccc(Cl)cc4Cl)O3)cc2)CC1 (stereo not drawn) [Ketoconazole],0.75,–
High (High: HIA value ≥0.7),O=c1n(CCCN2CCN(c3cccc(Cl)c3)CC2)nc2ccccn12 [Trazodone],1,–
High (High: HIA value ≥0.7),CN1C(C(=O)Nc2ccccn2)=C(O)c2sc(Cl)cc2S1(=O)=O [Lornoxicam],1,–
Low (Low: HIA value < 0.7),COc1ccc2c(C(=S)N(C)CC(=O)O)cccc2c1C(F)(F)F [Tolrestat],0.66,–
High (High: HIA value ≥0.7),NC(=O)N1C(=O)/C(=C(\O)c2cccs2)c2cc(Cl)ccc21 [Tenidap],–,0.89
High (High: HIA value ≥0.7),CN1CCC(=C2c3ccccc3CC(=O)c3sccc32)CC1 [Ketotifen],0.9,–
High (High: HIA value ≥0.7),CCc1[nH]c(=O)[nH]c1C(=O)c1ccncc1 [Piroximone],0.8,–
High (High: HIA value ≥0.7),Clc1ccc2c(c1)C(N1CCNCC1)=Nc1ccccc1O2 [Amoxapine],0.95,–
High (High: HIA value ≥0.7),CN1CCC(=C2c3ccccc3C=Cc3ccccc32)CC1 [Cyproheptadine],0.8,–
High (High: HIA value ≥0.7),O=C(c1ccc(F)cc1)C1CCN(CCn2c(=O)[nH]c3ccccc3c2=O)CC1 [Ketanserin],1,–
High (High: HIA value ≥0.7),CCO[C@@H](Cc1ccc(OCCc2ccc(OS(C)(=O)=O)cc2)cc1)C(=O)O [Tesaglitazar],1,–
High (High: HIA value ≥0.7),O=c1[nH]c2ccccc2n1CCCN1CCN(C(c2ccccc2)c2ccccc2)CC1 [Oxatomide],1,–
High (High: HIA value ≥0.7),COc1ccc2cc(CCC(C)=O)ccc2c1 [Nabumetone],0.8,–
